Measurements published in ChEMBL document CHEMBL2029327, “Synthetic menthyl α/β-(1→6)-diglucopyranosides-induced cell death in human leukemia cells is dependent on caspases” (Bioorg Med Chem Lett, 2012).
The source made the active and inactive calls. No cut-off for these calls is given here.

Legend:
[1] = tested on: HL-60; assay: Cytotoxicity against human HL60 cells after 72 hrs by MTT assay; type: functional, cell-based; conditions: for IC50: HL-60, 72 h
[2] = tested on: U-937; assay: Cytotoxicity against human U937 cells after 72 hrs by MTT assay; type: functional, cell-based; conditions: for IC50: U-937, 72 h
[3] = tested on: MOLT-3; assay: Cytotoxicity against human MOLT3 cells after 72 hrs by MTT assay; type: functional, cell-based; conditions: for IC50: MOLT-3, 72 h
[4] = tested on: MCF7; assay: Cytotoxicity against human MCF7 cells after 72 hrs by MTT assay; type: functional, cell-based; conditions: for IC50: MCF7, 72 h
[5] = tested on: HL-60; assay: Cytotoxicity against human HL60 cells assessed as morphological changes at 10 uM after 24 hrs by inverted phase-contrast microscopic analysis; type: functional, cell-based
[6] = tested on: U-937; assay: Cytotoxicity against human U937 cells assessed as morphological changes at 10 uM after 24 hrs by inverted phase-contrast microscopic analysis; type: functional, cell-based
[7] = tested on: MOLT-3; assay: Cytotoxicity against human MOLT3 cells assessed as morphological changes at 10 uM after 24 hrs by inverted phase-contrast microscopic analysis; type: functional, cell-based
[8] = tested on: MCF7; assay: Cytotoxicity against human MCF7 cells assessed as morphological changes at 10 uM after 24 hrs by inverted phase-contrast microscopic analysis; type: functional, cell-based
[9] = tested on: HL-60; assay: Cytotoxicity against human HL60 cells assessed as reduction in cell number at 10 uM after 24 hrs by inverted phase-contrast microscopic analysis; type: functional, cell-based
[10] = tested on: U-937; assay: Cytotoxicity against human U937 cells assessed as reduction in cell number at 10 uM after 24 hrs by inverted phase-contrast microscopic analysis; type: functional, cell-based
[11] = tested on: MOLT-3; assay: Cytotoxicity against human MOLT3 cells assessed as reduction in cell number at 10 uM after 24 hrs by inverted phase-contrast microscopic analysis; type: functional, cell-based
[12] = tested on: U-937; assay: Induction of apoptosis in human U937 cells assessed as increase in apoptotic cells at 10 uM after 24 hrs by propidium iodide staining-based flow cytometric analysis (reference value: 2.3 /- 0.4%); type: functional
[13] = tested on: MOLT-3; assay: Induction of apoptosis in human MOLT3 cells assessed as increase in apoptotic cells at 10 uM after 24 hrs by propidium iodide staining-based flow cytometric analysis (reference value: 3.1 /- 0.7%); type: functional
[14] = tested on: HL-60; assay: Induction of apoptosis in human HL60 cells assessed as increase in chromatin condensation at 10 uM after 24 hrs by Hoechst staining-based flow cytometric analysis; type: functional, cell-based
[15] = tested on: U-937; assay: Induction of apoptosis in human U937 cells assessed as increase in chromatin condensation at 10 uM after 24 hrs by Hoechst staining-based flow cytometric analysis; type: functional, cell-based
[16] = tested on: HL-60; assay: Induction of apoptosis in human HL60 cells assessed as […] hydrolysis of chromatin at 10 uM after 24 hrs by agarose gel electrophoretic analysis; type: functional, cell-based
[17] = tested on: MOLT-3; assay: Induction of apoptosis in human MOLT3 cells assessed as increase in chromatin condensation at 10 uM after 24 hrs by Hoechst staining-based flow cytometric analysis; type: functional, cell-based
[18] = tested on: U-937; assay: Induction of apoptosis in human U937 cells assessed as […] hydrolysis of chromatin at 10 uM after 24 hrs by agarose gel electrophoretic analysis; type: functional, cell-based
[19] = tested on: MOLT-3; assay: Induction of apoptosis in human MOLT3 cells assessed as […] hydrolysis of chromatin at 10 uM after 24 hrs by agarose gel electrophoretic analysis; type: functional, cell-based

Row | Structure (SMILES) | Activity [1] | IC50 [1] | Activity [2] | IC50 [2] | Activity [3] | IC50 [3] | Activity [4] | IC50 [4] | Activity [5] | Activity [6] | Activity [7] | Activity [8] | Activity [9] | Activity [10] | Activity [11] | Activity [14] | Activity [15] | Activity [16] | Activity [17] | Activity [18] | further results
1 | CC(C)[C@H]1CC[C@H](C)C[C@@H]1O[C@H]1O[C@H](CO[C@@H]2O[C@H](COC(=O)c3ccc(Br)cc3)[C@@H](OC(=O)c3ccc(Br)cc3)[C@H](O)[C@H]2O)[C@@H](O)[C@H](O)[C@H]1O | Dose-dependent effect | 7.3 µM | Dose-dependent effect | 6.9 µM | Dose-dependent effect | 5.8 µM | Dose-dependent effect | 6.1 µM | Active | Active | Active | Active | Active | Active | Active | Active | Active | Active | Active | Active | Activity [12]: 46%; Activity [13]: 69.5%; Activity [19]: Active
2 | CC(C)[C@@H]1CC[C@@H](C)C[C@H]1OC1O[C@H](CO[C@@H]2O[C@H](COC(=O)c3ccc(Br)cc3)[C@@H](OC(=O)c3ccc(Br)cc3)[C@H](O)[C@H]2O)[C@@H](O)[C@H](O)[C@H]1O (single isomer, unassigned) | Dose-dependent effect | 7 µM | Dose-dependent effect | 5.8 µM | Dose-dependent effect | 10.6 µM | Dose-dependent effect | 12.1 µM | Active | Active | Active | Active | Active | Active | Active | Active | Active | Active | Active | Active | Activity [19]: Active
